For 18 compounds, GI50 and TGI results are on record in PubChem BioAssay (NCI).

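Where inhibition never reached the appropriate level, the endpoint shown equals the highest concentration tested. Otherwise, values were interpolated linearly from a five-concentration, 48-hour dose response in 96-well plates. Abbreviation: GI50, concentration required for 50% inhibition of growth. TGI is the concentration that stops growth completely.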

For the first assay, the system named is HOP-92 NSCLC. Put plainly: inhibition of tumour cell growth, NCI panel, 48 h.
Take `CCOC1Oc2ccccc2C(=O)/C1=C/Nc1ccc(C(C)=O)cc1` (stereo not given): the GI50 is 25.6 µM and the TGI is more than 100 µM.
With `COC1/C=C/OC2(C)Oc3c(C)c(O)c4c(O)c(c(/C=N/Nc5ccc([N+](=O)[O-])cc5[N+](=O)[O-])c(O)c4c3C2=O)NC(=O)C(C)=C/C=C/C(C)C(O)C(C)C(O)C(C)C(OC(C)=O)C1C` (stereo not given), the GI50 is 0.885 µM and the TGI is 2.04 µM.
With `O=C(Nc1ccc(F)cc1)Nc1ccc(Cl)c([N+](=O)[O-])c1`, the GI50 was 2.03 µM and the TGI is 6.12 µM.
Compound `C[N+](C)(C)CC(=O)N/N=C(/CC(=O)CC(C1=C(O)c2ccccc2OC1)c1ccccc1)C(=O)Nc1cccc(Cl)c1` (stereo not given) gave a TGI of more than 100 µM.
In the case of `OCCN(CCO)c1ncnc2c1ncn2Cc1ccc(CCl)cc1`, the GI50 was 16.4 µM and the TGI was determined as 31.7 µM.
On the same counts, the results for `Cc1ccc(NC(=O)Nc2ccc(-c3cccnc3)cc2N2CCC(CO)CC2)cc1` are 2.5 µM and 6.42 µM.
Turning to `COc1cnc2c(c1)C(=O)c1c-2n(CCCN2CCOCC2)c(=O)c2cc(F)ccc12`, the GI50 is 0.858 µM and the TGI worked out at 6.86 µM.
Take `Nc1nc(-n2c(-c3ccccc3)nc3c(Br)cc(Br)cc3c2=O)nnc1-c1cccc(Cl)c1Cl`: the GI50 was 38.5 µM and the TGI is more than 100 µM.
Regarding `FC(F)(F)c1cccc(Nc2nc(-c3ccccc3)nc3ncccc23)c1`, the GI50 was 4.65 µM and the TGI was found to be 18 µM.
`C=CCOc1ccc2c(C)cc(=O)oc2c1C` returned a TGI of more than 100 µM.
`COC(=O)/C=C1\S/C(=N\NC(=O)c2cc3ccc2/C=C\c2ccc(cc2)/C=C\3)N(c2ccccc2)C1=O`: the GI50 is 1.91 µM and the TGI turned out to be 9.14 µM.
`COc1cc2cc(OC)c3cc4c(cc3c2c(OC)c1OC)OCO4` registered a TGI of more than 93.3 µM.
Consider `COc1cc2c(c3oc4c(O)cccc4c(=O)c13)CC(C(C)(O)CO)O2` (stereo not given), for which the TGI was more than 100 µM.
Turning to `COc1cc2c(cc1OCCCCN1CCN(CC(=O)Nc3ccc(Cl)cc3C(=O)c3ccccc3Cl)CC1)N=CC1CCCN1C2=O` (stereo not given), the GI50 is 0.0982 µM and the TGI was found to be 0.298 µM.

The next assay concerns A498 renal. Put plainly: inhibition of tumour cell growth, NCI panel, 48 h.
In the case of `COC1/C=C/OC2(C)Oc3c(C)c(O)c4c(O)c(c(/C=N/Nc5ccc([N+](=O)[O-])cc5[N+](=O)[O-])c(O)c4c3C2=O)NC(=O)C(C)=C/C=C/C(C)C(O)C(C)C(O)C(C)C(OC(C)=O)C1C` (stereo not given), the GI50 was 6.87 µM and the TGI was 14 µM.
On the same counts, the results for `O=C(Nc1ccc(F)cc1)Nc1ccc(Cl)c([N+](=O)[O-])c1` are 1.8 µM and 5.78 µM.
On to `COc1ccc2c(c1)sc1nc(-c3ccccc3)c(-c3cccc4ccccc34)n12`, for which the GI50 is 0.601 µM and the TGI was more than 30 µM.
On to `C[N+](C)(C)CC(=O)N/N=C(/CC(=O)CC(C1=C(O)c2ccccc2OC1)c1ccccc1)C(=O)Nc1cccc(Cl)c1` (stereo not given), for which the TGI is more than 100 µM.
Regarding `OCCN(CCO)c1ncnc2c1ncn2Cc1ccc(CCl)cc1`, the GI50 is 14.2 µM and the TGI amounted to 28.1 µM.
In the case of `Cc1cc(-c2nc(C(=O)Nc3cc4oc(N5CCOCC5)nc4nc3N3CC[C@@H](O)C3)co2)ccn1`, the GI50 was 1.34 µM and the TGI worked out at 39.2 µM.
`COc1cnc2c(c1)C(=O)c1c-2n(CCCN2CCOCC2)c(=O)c2cc(F)ccc12`: the GI50 is 0.172 µM and the TGI stood at 0.911 µM.
As for `Nc1nc(-n2c(-c3ccccc3)nc3c(Br)cc(Br)cc3c2=O)nnc1-c1cccc(Cl)c1Cl`, the GI50 is 15.4 µM and the TGI is 56.5 µM.
Regarding `NS(=O)(=O)OC[C@@H]1C[C@@H](n2ccc3c(NC4CCc5ccccc54)ncnc32)C[C@@H]1O` (stereo not given in full), the GI50 was 0.123 µM and the TGI came to 2.27 µM.
Take `FC(F)(F)c1cccc(Nc2nc(-c3ccccc3)nc3ncccc23)c1`: the GI50 is 1.7 µM and the TGI was found to be 5.21 µM.
Turning to `C=CCOc1ccc2c(C)cc(=O)oc2c1C`, the TGI was more than 100 µM.
`COc1cc2cc(OC)c3cc4c(cc3c2c(OC)c1OC)OCO4` registered a TGI of 97.5 µM.
With `COc1cc2c(c(OC)c1OC)-c1ccc(NNC(N)=S)c(=O)cc1[C@@H](NC(C)=O)CC2`, the GI50 was 0.93 µM and the TGI was more than 21.1 µM.
With `COc1cc2c(cc1OCCCCN1CCN(CC(=O)Nc3ccc(Cl)cc3C(=O)c3ccccc3Cl)CC1)N=CC1CCCN1C2=O` (stereo not given), the GI50 was 0.194 µM and the TGI is 0.364 µM.

The test system of a further assay is OVCAR-8 ovarian. The assay is described as follows: inhibition of tumour cell growth, NCI panel, 48 h.
Turning to `CCOC1Oc2ccccc2C(=O)/C1=C/Nc1ccc(C(C)=O)cc1` (stereo not given), the GI50 is 16.3 µM and the TGI turned out to be 45 µM.
As to `COC1/C=C/OC2(C)Oc3c(C)c(O)c4c(O)c(c(/C=N/Nc5ccc([N+](=O)[O-])cc5[N+](=O)[O-])c(O)c4c3C2=O)NC(=O)C(C)=C/C=C/C(C)C(O)C(C)C(O)C(C)C(OC(C)=O)C1C` (stereo not given), the GI50 is 1.41 µM and the TGI stood at 3.93 µM.
On to `O=C(Nc1ccc(F)cc1)Nc1ccc(Cl)c([N+](=O)[O-])c1`, for which the GI50 was 2.98 µM and the TGI is 15.1 µM.
For `COc1ccc2c(c1)sc1nc(-c3ccccc3)c(-c3cccc4ccccc34)n12`, the GI50 is 0.771 µM and the TGI is more than 100 µM.
`C[N+](C)(C)CC(=O)N/N=C(/CC(=O)CC(C1=C(O)c2ccccc2OC1)c1ccccc1)C(=O)Nc1cccc(Cl)c1` (stereo not given) displayed a TGI of more than 100 µM.
Consider `OCCN(CCO)c1ncnc2c1ncn2Cc1ccc(CCl)cc1`, for which the GI50 was 15.4 µM and the TGI was determined as 31.7 µM.
Consider `Cc1ccc(NC(=O)Nc2ccc(-c3cccnc3)cc2N2CCC(CO)CC2)cc1`, for which the GI50 was 6.43 µM and the TGI was more than 100 µM.
For `Cc1cc(-c2nc(C(=O)Nc3cc4oc(N5CCOCC5)nc4nc3N3CC[C@@H](O)C3)co2)ccn1`, the GI50 is 38.7 µM and the TGI is more than 100 µM.
On to `COc1cnc2c(c1)C(=O)c1c-2n(CCCN2CCOCC2)c(=O)c2cc(F)ccc12`, for which the GI50 is 0.246 µM and the TGI is more than 100 µM.
In the case of `Nc1nc(-n2c(-c3ccccc3)nc3c(Br)cc(Br)cc3c2=O)nnc1-c1cccc(Cl)c1Cl`, the GI50 is 17.2 µM and the TGI was more than 100 µM.
Take `NS(=O)(=O)OC[C@@H]1C[C@@H](n2ccc3c(NC4CCc5ccccc54)ncnc32)C[C@@H]1O` (stereo not given in full): the GI50 was 0.823 µM and the TGI was determined as 36.7 µM.
